One block for each compound: values may come before it.
Key:
[1] = tested on: human skin grafts on immunodeficient mice; test: Humanized psoriasis mouse model (human skin grafts, PBMC injection); format: in vivo; conditions: twice daily topical; after three weeks
Text: A humanized mouse model of psoriasis is a model that involves grafting of human non-lesional skin biopsies from psoriasis patients onto the back skin of immunodeficient mice. After the human skin has grafted (3 to 4 weeks later), T-cell activated human peripheral blood mononuclear cells (PBMCs) from the same donor are intradermally injected into the graft to induce psoriasis-like epidermal thickening (Wrone-Smith and Nickoloff J., Clin Invest. 15; 98(8):1878-87 (1996)).
After three weeks the mice are euthanized, the grafted skin was isolated, and the thickness of the epidermis is measured.

[2] = tested on: human TNFα and human IL-17; test: Inhibition of CXCL1 production from HT-29 cells induced by combination of IL-17 and TNF; format: cell-based; conditions: antibodies at fixed dose of 4 nM, 3 pM TNFα and 200 pM IL-17
Description: As described above, HT-29 cells are human colorectal adenocarcinoma epithelial cells that naturally express the IL-17 and TNF receptors. Incubation of HT-29 cells with human TNFα and human IL-17 results in the production of CXCL1, which can be measured using a commercially available ELISA.
Testing is carried out in five replicate wells per treatment. Assay medium is used for “medium alone” and “IL-17+TNF alone”. Anti-IL-17 antibody (U.S. Pat. No. 7,838,638); anti-TNFα antibody (adalimumab); and combination of anti-IL-17 antibody/anti-TNF antibody are used as controls in the assay. Control antibodies are tested at the same molar range as the bispecific antibody. […]
HT-29 cells are routinely cultured in assay medium [McCoy's 5A containing 10% FBS, penicillinG (0.2 U/mL) and streptomycin (0.2 mcg/mL)]. […] Cell density is measured with Invitrogen Countess, and 20,000 HT-29 cells (in 100 μL) are added to each of the 96-well plates. […]
At the end of the assay, the plates are centrifuged (500×g for 5 minutes at room temperature), and the cell culture medium is transferred to polypropylene 96-well plates, which are sealed and frozen at −80° C. […] CXCL1 levels in medium are measured with a CXCL1 sandwich ELISA (R&D Systems DuoSet #DY275), as per the manufacturer's instructions. At the end of the ELISA reactions, plates are read at 450 nm on a microplate reader (Molecular Devices VersaMax Tunable).

human TNFα = human TNFα (Homo sapiens, UniProt P01375); test: Inhibition of human TNFα-induced production of CXCL1 in vivo; parameters: species or system mouse; conditions: C57BI/6J mice; 16.7 nmol/kg subcutaneously; TNFα challenge two days later; plasma two hours after challenge
Description: Two days later, mice receive a single intraperitoneal injection of human IL-17 (3 μg/mouse) or human TNFα (1 μg/mouse). Two hours after cytokine challenge, the mice are sacrificed and plasma is analyzed for CXCL1 using a commercial ELISA.

[3] = tested on: membrane bound human TNFα; test: Inhibition of membrane bound human TNFα induced cytotoxicity in L929 cells; format: cell-based; conditions: average of 3 independent experiments+/−SEM; read-out: IC50, killing of L929 cells by human non-cleavable membrane bound TNFα CHO cells
Description: The non-cleavable TNFα construct is stably transfected to Chinese hamster ovary (CHO) cells. These cells express membrane bound TNFα as shown by flow cytometry. Incubation of L929 cells with CHO cells expressing human non-cleavable membrane bound TNFα results in rapid L929 cell death.
CHO cells expressing membrane bound human TNFα are routinely maintained in selection medium (AM2001 media, an internal CHO growth media without MSX, 8 mM glutamine, GS supplement, HT supplement with 500 μg/mL G418). On the day of the assay, the cells are counted, rinsed with 1×PBS (no Ca^++ or Mg^++), centrifuged at 215×g for 5 mM and re-suspended at 50,000 cells/mL in L929 assay medium together with Actinomycin-D (6.25 μg/mL). 500 cells (in 10 μL) of cell suspension are added to each concentration of antibody mixtures that were incubated for 60 minutes at 37° C., 95% relative humidity, 5% CO2. […] The cell death is measured using an MTT cytotoxicity assay as described above for soluble TNFα L929 assay.

Sequence of membrane bound human TNFα (P01375 89-233 limits assumed): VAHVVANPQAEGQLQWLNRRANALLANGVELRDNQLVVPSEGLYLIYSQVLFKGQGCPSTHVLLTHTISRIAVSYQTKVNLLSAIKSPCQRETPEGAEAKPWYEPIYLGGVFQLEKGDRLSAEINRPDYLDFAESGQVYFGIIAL
Sequence of human TNFα (P01375 77-233 limits assumed): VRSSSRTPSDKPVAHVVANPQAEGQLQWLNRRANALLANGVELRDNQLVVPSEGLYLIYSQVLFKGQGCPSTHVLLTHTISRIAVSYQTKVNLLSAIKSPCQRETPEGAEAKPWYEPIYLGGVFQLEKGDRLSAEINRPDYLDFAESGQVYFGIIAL

Compound: C[C@H]1C[C@H]2[C@@H]3CCC4=CC(=O)C=C[C@]4(C)[C@@]3(F)[C@@H](O)C[C@]2(C)[C@@]1(O)C(=O)CO [Betamethasone, betamethasone]
Mean Epidermal Thickness [1]: 74.9 μm

Compound: adalimumab [anti-TNFα]
percent human CXCL1 left after incubation (TNF+IL-17 alone being 100%) [2]: 8.97+/−2.65%

Average % inhibition of human TNFα-induced CXCL1 production in vivo (human TNFα): 89.4 ± 2%
Compound: adalimumab with IgG4 isotype: TNFα neutralizing antibody (adalimumab with IgG4 isotype), positive control in L929 assays and in vivo CXCL1 (Table 2)
IC50 [3]: 0.669 nM

Source: US9416182B2, “Anti-TNF-anti-IL-17 bispecific antibodies” (Eli Lilly and Company, priority 2013, dated 2016)
